{"source": "patent US20110070171A1", "about": "“1-tert-Butylcyclohexanecarboxamide and uses thereof as cooling compounds” (priority 2009, published 2011)", "assay_type_in_all_cases": "in vivo", "key": {"[1]": {"test": "Flavor evaluation, tasted in water", "details": "tasted in water at 10 ppm", "source_text": "Based on this flavor evaluation, it is indicative that the Structure I and Structure II of our invention are useful for augmenting, enhancing or imparting a taste or cooling or refreshing effect in or to a cosmetic, skin care product, lip gloss, hair care product, cologne, shaving balm, after-shave lotion, dairy product, fruit ice preparation, confectionery, mouth and throat lozenges, cough mixtures, decongestants, antacids, oral analgesics or other medicinal products, chewing gum, candy (including hard candy and soft candy), fondants, toothpaste, mouthwashes, mineral water, alcoholic beverage, non-alcoholic beverage, powdered beverage, or other foodstuff as a result of adding to a cosmetic, skin care product, lip gloss, hair care product, cologne, shaving balm, after-shave lotion, dairy product, fruit ice preparation, confectionery, lozenges, cough mixtures, decongestants, antacids, oral analgesics or other medicinal product, chewing gum, candy, fondants, toothpaste, mouthwashes, mineral water, alcoholic beverage, non-alcoholic beverage, powdered beverage, or other foodstuff, a taste or cooling or refreshing effect augmenting, enhancing or imparting quantity and concentration of Structure I and Structure II."}, "[2]": {"test": "Evaluation of cooler mixed with fondant", "source_text": "In this example, the Structure I and II were mixed with a fondant, commercially available from Confectionary House, Troy, N.Y., at levels listed in Table 1."}, "[3]": {"test": "Chewing gum profiled by trained descriptive analysis panel", "details": "level 0.20%", "method": "The following gum base formulation was prepared: […]\nThe orange flavor is commercially available from IFF. The gum base, Hades-T is commercially available from Cafosa Gum, Barcelona Spain.\nStructure I and II by itself at levels detailed in the Tables below was blended with the gum base in a Sigma mixer. The resultant chewing gum blend was then manufactured into strips 1 inch in width and 0.1 inches in thickness. These strips were cut into lengths of 3 inches each.\nSamples were profiled by a highly trained descriptive analysis panel. The ballot consisted of the following terms: Total impact, total mint, cooling-mouth closed, cooling-breath in, nasal cooling—breathe in, throat irritation, bitterness, tongue irritation, numbing. Each attribute was rated at discrete time points including 1 minute, 3 minutes, 5 minutes, 10 minutes, 20 minutes, and 30 minutes."}}, "data": [{"smiles": "CC(C)(C)C1(C(=O)NC2CC2)CCCCC1", "note": "[Structure I, 1-tert-butyl-N-cyclopropylcyclohexanecarboxamide]", "values": [{"measurement": "Taste description (cooling)", "setting": "[1]", "value": "gradual onset cooling"}, {"measurement": "COMMENTS (cooling evaluation in fondant)", "setting": "[2]; 50 ppm", "value": "Slight irritation in rear of throat, slight cooling"}, {"measurement": "COMMENTS (cooling evaluation in fondant)", "setting": "[2]; 200 ppm", "value": "Moderate cooling, consistent, and slight tingle."}]}, {"smiles": "COCCNC(=O)C1(C(C)(C)C)CCCCC1", "note": "[Structure II, 1-tert-butyl-N-[2-methoxy-ethyl]cyclohexanecarboxamide]", "values": [{"measurement": "Taste description (cooling)", "setting": "[1]", "value": "wet cardboard, slightly cooling"}, {"measurement": "COMMENTS (cooling evaluation in fondant)", "setting": "[2]; 50 ppm", "value": "Slight bitterness, very little cooling."}, {"measurement": "COMMENTS (cooling evaluation in fondant)", "setting": "[2]; 200 ppm", "value": "Good Cooling low to moderate, slight throat"}, {"measurement": "Time and Evaluation (cooling in chewing gum)", "setting": "[3]; 0-1 min", "value": "no perceivable cooling slightly bitter,"}, {"measurement": "Time and Evaluation (cooling in chewing gum)", "setting": "[3]; 1-3 min", "value": "Slight cooling with slight tingle on tongue"}, {"measurement": "Time and Evaluation (cooling in chewing gum)", "setting": "[3]; 3-5 min", "value": "full mouth cooling not very intense, slight"}, {"measurement": "Time and Evaluation (cooling in chewing gum)", "setting": "[3]; 5-10 min", "value": "slight residual cooling very weak"}, {"measurement": "Time and Evaluation (cooling in chewing gum)", "setting": "[3]; 10-20 min", "value": "still slight cooling, slight tingle"}, {"measurement": "Time and Evaluation (cooling in chewing gum)", "setting": "[3]; 20-30 min", "value": "cooling diminished very weak, very mild"}]}]}
